Data published in patent US20170239351A1, “Therapeutic Combinations of a BTK Inhibitor, a PI3K Inhibitor, a JAK-2 Inhibitor, a PD-1 Inhibitor, and/or a PD-L1 Inhibitor” (Acerta Pharma B.V., priority 2014, published 2017).

Key:
[1] = test system: expression of activation markers CD69 and CD86; assay: In vivo potency: BCR stimulated with IgM, CD69 and CD86 expression by flow cytometry; conditions: mice gavaged, 3 h post-dose
Method: Mice were gavaged at increasing drug concentration and sacrificed at one time point (3 h post-dose). BCR is stimulated with IgM and the expression of activation markers CD69 and CD86 are monitored by flow cytometry to determine EC50's.

CLL = assay: Clinical study of Formula (XVIII) in CLL; type: in vivo
KPC pancreatic cancer = KPC pancreatic cancer model; conditions: in vivo
CD8^+ T cell = assay: CD8+ T cell viability; type: cell-based
CD8^+ T cell function = assay: IFN-γ level measurements for CD8+ T cell function; type: cell-based; conditions: relative to vehicle
Brain penetration study = conditions: in vivo
ID8 ovarian cancer = assay: ID8 syngeneic orthotropic ovarian cancer murine model; type: in vivo, mice
Excerpt: Human ovarian cancer models, including the ID8 syngeneic orthotropic ovarian cancer model and other animal models, are described in Fong and Kakar, J. Ovarian Res. 2009, 2, 12; Greenaway, et al., Gynecol. Oncol. 2008, 108, 385-94; Urzua, et al., Tumour Biol. 2005, 26, 236-44; Janat-Amsbury, et al., Anticancer Res. 2006, 26, 3223-28; Janat-Amsbury, et al., Anticancer Res. 2006, 26, 2785-89. […] The results of the study are shown in FIG. 100, FIG. 101, FIG. 102, FIG. 103, FIG. 104, FIG. 105, FIG. 106, and FIG. 107.
Each cohort consisted of 12 mice. Every two weeks mice are injected with luciferin, and tumor growth was monitored using the Xenogen system (Caliper Life Sciences, PerkinElmer, Hopkinton, Mass., USA). Tumor size was measured by calculated flux.
The experiments were performed as described in Example 7.

[2] = test system: human platelet-mediated thrombosis; set-up: species or system VWF HA1 mice (human platelets); conditions: in vivo
Method: […]. Injury to the vessel wall of arterioles ([…] diameter) was performed using a pulsed nitrogen dye laser (440 nm, Photonic Instruments) applied through a 20× water-immersion Olympus objective (LUMPlanF1, 0.5 numerical aperature (NA)) of a Zeiss Axiotech vario microscope. Human platelet and wall interactions were visualized by fluorescence microscopy using a system equipped with a Yokogawa CSU-22 spinning disk confocal scanner, iXON EM camera, and 488 nm and 561 nm laser lines to detect BCECF-labeled and rhodamine-labeled platelets, respectively (Revolution XD, Andor Technology). The extent of thrombus formation was assessed for 2 minutes after injury and the area (μm^2) of coverage determined (Image IQ, Andor Technology).
. The BTK inhibitor-treated human platelets were fluorescently labeled and infused continuously through a catheter inserted into the femoral artery. Their behavior in response to laser-induced vascular injury was monitored in real time using two-channel confocal intravital microscopy (Furie and Furie, J. Clin. Invest. 2005, 115(12), 2255-62). Upon induction of arteriole injury untreated platelets rapidly formed thrombi with an average thrombus size of […] (mean±s.e.m.), as shown in FIG. 124 and FIG. 125. […]. […]. […]

human platelets = assay: GPVI (convulxin-induced) platelet aggregation; type: cell-based
Method: GPVI platelet aggregation was measured for Formula (XVIII) and Formula (XX-A) (ibrutinib). Blood was obtained from untreated humans, and platelets were purified from […] by centrifugation. Cells were resuspended to a final concentration of 350,000/μL in buffer containing 145 mmol/L NaCl, 10 mmol/L HEPES, 0.5 mmol/L Na2HPO4, 5 mmol/L KCl, 2 mmol/L MgCl2, 1 mmol/L CaCl2, and 0.1% glucose, at pH 7.4. Stock solutions of Convulxin (CVX) GPVI were prepared on the day of experimentation and added to platelet suspensions 5 minutes (37° C., 1200 rpm) before the induction of aggregation. Aggregation was assessed with a Chronolog Lumi-Aggregometer (model 540 VS; Chronolog, Havertown, Pa.) and permitted to proceed for 6 minutes after the addition of agonist. The results are reported as maximum percent change in light transmittance from baseline with platelet buffer used as a reference.
In FIG. 129, the results of CVX-induced (250 ng/mL) human platelet aggregation results before and 15 minutes after administration of the BTK inhibitors to 6 healthy individuals are shown.

Raji cells = assay: Rituximab ADCC assay (51Cr release), healthy donor NK cells; type: cell-based, human; conditions: 1 μM
[3] = In vitro metabolism in hepatocytes with 14C-labeled drug; type: in vitro ADME, mouse, rat, dog, rabbit, monkey, and human
[4] = Glutathione binding and depletion in vitro; type: in vitro ADME
BTK = target: T1, BTK (Mus musculus, UniProt P35991); assay: Molecular probe assay of irreversible BTK occupancy in MDSCs; type: in vivo, tumor bearing PDA mice; conditions: 15 mg/kg BID; Day 8 at 4 hours post dose (N=5)
T1 construct: MDSCs were purified from tumor bearing PDA mice; endogenous in cells; host or cells: granulocytic and monocytic MDSCs purified from tumour-bearing PDA mice
Excerpt: A molecular probe assay was used to calculate the percent irreversible occupancy of total BTK.

NK cells = assay: Whole blood NK cell degranulation/ADCC assay with obinutuzumab-opsonised MEC-1 cells; type: cell-based, human; conditions: CD56+/CD107a+ NK cells; n=3 experiments
CD4^+ T cells = assay: Th17 and Treg development from CD4+ T cells; type: cell-based
Method: Enriched CD4^+ T cells are plated on 24-well culture dishes that have been precoated 2 hr with 250 μL anti-TCRβ (0.5 μg/mL) plus anti-CD28 (5 μg/mL) at 37° C. in PBS. The cells are then supplemented with media containing BTK inhibitors along with the skewing cytokines as indicated in the following. The Th17 and Treg cultures are grown for 4 days before analysis. The cells are maintained for an additional 3 days with skewing cytokines (Th17; 20 ng/mL IL-6, 0.5 ng/mL TGF-β, 5 μg/mL IL-4, 5 μg/mL IFN-γ and Treg; 0.5 ng/mL TGF-β, 5 μg/mL IL-4, 5 μg/mL IFN-γ) and are supplemented with IL2 as a growth factor.

T1 sequence (P35991 whole entry): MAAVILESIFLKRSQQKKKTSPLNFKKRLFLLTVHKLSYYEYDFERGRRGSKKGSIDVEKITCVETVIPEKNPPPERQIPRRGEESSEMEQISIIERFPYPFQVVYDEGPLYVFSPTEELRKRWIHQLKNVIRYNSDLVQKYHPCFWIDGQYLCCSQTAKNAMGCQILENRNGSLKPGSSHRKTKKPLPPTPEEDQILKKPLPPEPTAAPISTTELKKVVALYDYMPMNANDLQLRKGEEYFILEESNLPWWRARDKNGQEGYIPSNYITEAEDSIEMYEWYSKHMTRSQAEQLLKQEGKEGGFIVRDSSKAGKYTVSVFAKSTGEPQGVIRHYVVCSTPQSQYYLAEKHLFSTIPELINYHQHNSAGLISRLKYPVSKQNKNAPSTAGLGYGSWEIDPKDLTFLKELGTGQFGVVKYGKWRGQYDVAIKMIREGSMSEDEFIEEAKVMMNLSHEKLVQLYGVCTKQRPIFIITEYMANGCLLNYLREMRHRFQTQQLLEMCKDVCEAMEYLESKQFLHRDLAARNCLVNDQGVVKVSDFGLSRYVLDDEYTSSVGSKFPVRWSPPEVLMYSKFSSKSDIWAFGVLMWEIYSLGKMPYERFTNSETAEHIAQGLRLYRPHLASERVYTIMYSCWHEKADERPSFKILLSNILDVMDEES

## CC#CC(=O)N1CCC[C@H]1c1nc(-c2ccc(C(=O)Nc3ccccn3)cc2)c2c(N)nccn12 [Formula (XVIII), (S)-4-(8-amino-3-(1-(but-2-ynoyl)pyrrolidin-2-yl)imidazo[1,5-a]pyrazin-1-yl)-N-(pyridin-2-yl)benzamide]
[1]
  inhibition of expression of activation markers CD69 and CD86, compared with ibrutinib: more potent at inhibiting expression of activation makers than ibrutinib
CLL; CLL patients treated
  apoptosis: increased apoptosis
CLL; CLL patients, compared with ibrutinib
  sum of the product of greatest diameters (SPD): decreases more rapidly
CLL; CLL patients, relative to ibrutinib data of Byrd, et al.
  absolute lymphocyte count (ALC): much smaller relative increase and much faster decrease
CLL; patients treated
  CCL2 levels: decrease in CCL2 levels
  CXCL12 levels: decrease in CXCL12 levels
KPC pancreatic cancer
  immunosuppressive MDSCs (Gr1+Ly6CHi) in tumor tissues: significantly reduced
  immunosuppressive TAMs (CD11b+Ly6ClowF4/80+Csf1r+) in tumor tissues: significantly reduced
  immunosuppressive Tregs (CD4+CD25+FoxP3+) in tumor tissues: significantly reduced
CD8^+ T cell
  effect on CD8+ T cell viability: no effect on CD8^+ T cell viability
CD8^+ T cell function
  CD8+ T cell function as measured by IFN-γ level: no effect on CD8^+ T cell function
Brain penetration study
  brain penetration (blood-brain barrier): crosses the blood-brain barrier
ID8 ovarian cancer; 15 mg/kg/BID oral
  cytolytic CD8^+ T cells: increase
  immunosuppressive B cells in tumor-bearing mice: significant reduction
  immunosuppressive tumor associated Tregs: significant reduction
ID8 ovarian cancer; Formula (XVIII) 15 mg/kg BID oral, antibody 150 μg
  ID8 ovarian cancer growth: impairs ID8 ovarian cancer growth
[2]
  effect on thrombus formation: does not interfere with thrombus formation
Human platelets
  GPVI platelet aggregation: does not
Raji cells
  effect on rituximab-mediated ADCC: not inhibited
[3]
  metabolites found: two mono-oxidized metabolites and a glutathione conjugate
  unique human metabolite: No unique human metabolite was identified
[4]
  glutathione binding and depletion: binds to glutathione but does not deplete glutathione
BTK
  BTK occupancy in granulocytic and monocytic MDSC compartment: Complete BTK occupancy
NK cells
  reduction of obinutuzumab-stimulated NK cell degranulation: minimal effect
CD4^+ T cells
  effect on Th17 and Treg development: no adverse effects on Th17 and Treg development
